According to PubChem BioAssay (NCI):
Values joined by “and” are separate entries in the source; they are usually repeats but may differ in a detail not shown here. Identical values can stand only once.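 Growth conditions: 96-well plates. Treatment: test compound, 48 hours, 5 concentrations. Analysis: linear interpolation between bracketing concentrations; unreached endpoints set to highest concentration. GI50 = concentration required for 50% inhibition of growth. At the TGI there is no net growth.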

Assays:
Assay in all cases: DTP human tumour cell line panel, 48 h
ACHN renal = test system: ACHN renal
SK-OV-3 ovarian = test system: SK-OV-3 ovarian
MALME-3M melanoma = test system: MALME-3M melanoma
HCT-116 colon = test system: HCT-116 colon
SNB-19 CNS = test system: SNB-19 CNS
SK-MEL-5 melanoma = test system: SK-MEL-5 melanoma
PC-3 prostate = test system: PC-3 prostate
NCI/ADR-RES ovarian = test system: NCI/ADR-RES ovarian
MCF7 breast = test system: MCF7 breast
HOP-62 NSCLC = test system: HOP-62 NSCLC

SMILES	GI50 (ACHN renal)	TGI (ACHN renal)	GI50 (SK-OV-3 ovarian)	TGI (SK-OV-3 ovarian)	GI50 (MALME-3M melanoma)	TGI (MALME-3M melanoma)	GI50 (HCT-116 colon)	TGI (HCT-116 colon)	GI50 (SNB-19 CNS)	TGI (SNB-19 CNS)	GI50 (SK-MEL-5 melanoma)	TGI (SK-MEL-5 melanoma)	GI50 (PC-3 prostate)	TGI (PC-3 prostate)	GI50 (NCI/ADR-RES ovarian)	TGI (NCI/ADR-RES ovarian)	GI50 (MCF7 breast)	TGI (MCF7 breast)	GI50 (HOP-62 NSCLC)	TGI (HOP-62 NSCLC)
CCOC(=O)c1c(C)n(Cc2ccccc2)c2c1cc(O)c1[nH]c(Cc3ccccc3)nc12	23 µM	> 100 µM	23.2 µM	> 100 µM	9.93 µM	58 µM	5910 nM	> 43.5 µM	23.6 µM	> 67.9 µM	9890 nM	39.1 µM	7.88 µM	> 100 µM	18.9 µM	> 57.9 µM	7400 nM	> 53.1 µM	17.4 µM	> 85.6 µM
CC1=C(/C=C/C(C)=C/C=C/C(C)=C/C=N/NC(=S)NC(=S)N/N=C/C=C(C)/C=C/C=C(C)/C=C/C2=C(C)CCCC2(C)C)C(C)(C)CCC1	5.14 µM and 2.3 µM	11.4 µM and 7.9 µM	6.79 µM and 5.51 µM	14 µM and 12.3 µM	1.19 µM and 0.882 µM	5.91 µM and 2.63 µM	1910 nM and 916 nM	8.4 µM and 2.23 µM	5.25 µM and 4.15 µM	11.6 µM and 12 µM	1550 nM and 1560 nM	5.03 µM and 6.03 µM	3.52 µM and 1.75 µM	12.7 µM and 7.23 µM	1.76 µM and 1.56 µM	6.61 µM and 5.46 µM	2380 nM and 1830 nM	12.5 µM and 7.5 µM	3.84 µM and 2.42 µM	11.3 µM and 5 µM
Nc1nc(N)c(C=Nc2ccc(Br)cc2)c(Nc2ccc(Br)cc2)n1	8.96 µM	28 µM	15.1 µM	28.4 µM	17.8 µM	39.7 µM	6460 nM	19.2 µM	12.4 µM	32.4 µM	13500 nM	26.3 µM	8.34 µM	26.4 µM	5.54 µM	26.3 µM	2570 nM	15.1 µM	10.5 µM	22.5 µM
COc1ccc(/C=c2\sc3n(c2=O)C2C(NN=3)N(C)C(=O)N2C)cc1 (stereo not given)	1.53 µM	> 100 µM	2.13 µM	> 100 µM	1.19 µM	> 100 µM	483 nM	> 100 µM	1.3 µM	> 100 µM	660 nM	> 100 µM	0.444 µM	> 100 µM	0.579 µM	> 40.9 µM	384 nM	> 100 µM	1.29 µM	> 100 µM
COC1=C(C)C(=O)c2c(c(CCCl)c3n2CCC3O)C1=O (stereo not given)	0.327 µM	6.83 µM	0.412 µM	3.37 µM	0.23 µM	0.584 µM	1530 nM	> 100 µM	0.407 µM	13.6 µM	148 nM	0.291 µM	1.42 µM	10.8 µM	0.872 µM	7.61 µM	125 nM	1.9 µM	0.235 µM	1.83 µM
CC(=O)OC1=CC2=CC[C@H]3[C@@H]4CCC(=O)[C@@]4(C)CC(=O)[C@]3(S)[C@@]2(C)CC1		> 100 µM		> 100 µM		57.2 µM		49.3 µM		> 100 µM		> 100 µM		> 100 µM		> 100 µM		> 100 µM		> 100 µM
COc1cccc(-c2ccc3c(c2)C2CCN(Cc4ccccc4)C3C2)c1 (stereo not given)	11.9 µM	38.1 µM	14.8 µM	48.8 µM	13.4 µM	30.4 µM	4800 nM	23.6 µM	12.9 µM	30.5 µM	3510 nM	14.7 µM	6.99 µM	65.4 µM	8.94 µM	32.5 µM	4340 nM	19.5 µM	12.1 µM	35.6 µM
NC1=NC(c2ccc(Cl)cc2)N(c2ccc(S(N)(=O)=O)cc2)C(N)=N1 (stereo not given)		> 100 µM		> 100 µM		> 100 µM		> 100 µM		> 100 µM		> 100 µM		> 100 µM		> 100 µM		> 100 µM		> 100 µM
CCOc1cc(Br)c(C(C)NC(=O)c2cccc(OC)c2)cc1OCC (stereo not given)	21.1 µM	> 100 µM	23.1 µM	> 100 µM	9.9 µM	> 89.3 µM	4390 nM	> 100 µM	11.8 µM	> 100 µM	8060 nM	34.9 µM	12.6 µM	> 100 µM	5.71 µM	> 100 µM	5380 nM	> 100 µM	10.6 µM	> 100 µM
CN(COC(=O)c1ccccc1)c1nc(N(C)COC(=O)c2ccccc2)nc(N(C)COC(=O)c2ccccc2)n1		78.7 µM		> 100 µM		> 100 µM		> 100 µM		51.7 µM		> 100 µM		> 100 µM		> 100 µM		> 100 µM		40.6 µM
Cc1cc2cc3ccc(N(C)C)cc3nc2cc1N	0.423 µM	5.75 µM	0.552 µM	3.35 µM	0.929 µM	3.42 µM	279 nM	1.45 µM	0.582 µM	4.42 µM	767 nM	2.25 µM	0.992 µM	4.91 µM	2.51 µM	23.4 µM	350 nM	11.2 µM	0.481 µM	2.45 µM
COc1cccc(CSCC(=O)O)c1		> 100 µM		> 100 µM		> 100 µM		> 100 µM		> 100 µM		> 100 µM		> 100 µM		> 100 µM		> 100 µM		> 100 µM
O=C(O)C1CC2(C1)CC(C(=O)O)C2 (stereo not given)		> 100 µM		> 100 µM		> 100 µM		> 100 µM		> 100 µM		> 100 µM		> 100 µM		> 100 µM		> 100 µM		> 100 µM
S=C(Nc1ccc(N=Nc2ccccc2)cc1)SCc1ccccc1		31.3 µM		98 µM		22.9 µM		31.9 µM		39.4 µM		29.6 µM		30.6 µM		35.1 µM		64.6 µM		41.3 µM
CCN(Cc1ccc(F)cc1)c1ccc(CO)c(C)c1	12.5 µM	39.4 µM	8.91 µM	41.5 µM	5.58 µM	17.3 µM	2020 nM	17.6 µM	31.4 µM	> 100 µM	10200 nM	22.8 µM	11.6 µM	32.3 µM	16.8 µM	53.5 µM	15100 nM	> 52.2 µM	17.7 µM	39.1 µM
